Source: patent US20090076050A1, “SYNERGISTIC TUMOR-KILLING EFFECT OF RADIATION AND BERBERINE COMBINED TREATMENT IN LUNG CANCER” (CHUNG SHAN MEDICAL U., priority 2007, published 2009)
Residues, ends and D or L forms follow the SMILES beside them. *: point of attachment. Cbz = O=C(OCc1ccccc1)*; CH2F = FC*

System: A549 cells
Test: inhibition assay with caspase and autophagy inhibitors on cells co-treated with berberine and IR
Assay type: cell-based, human
Procedure: Berberine has been reported to induce cell death in several cancer cells via mitochondrial disruption (Lin J P, et al. World J Gastroenterol 2006; 12:21-28.). Therefore, mitochondrial membrane potential was next measured with JC-1. Mitochondria membrane potential (Δ Ψm), the lipophilic cationic probe fluorochrome JC-1 (Invitrogen) was used. […] After a treatment of radiation (6 Gy) for 24 h in the absence or presence of 1.0-10 μM berberine, cells were rinsed with DMEM, and JC-1 (5 μmol/L) was loaded. Determination of Δ Ψm was also carried out with a FACScan Flow Cytometer. […] It has been reported that depolarized mitochondria would move into autophagic vacuoles in response to appropriate stimulation; thus, mitochondria dysfunction may be a point of overlap between apoptotic and autophagocytic processes (Bras M, et al. Biochemistry (Mosc) 2005; 70:231-39). […] On the other hand, beclin-1 siRNA and 3-MA (autophagy inhibitor) blocked the cell death induced by 5.0 μM berberine combined with 6 Gy IR (p<0.001). As a consequence, berberine sensitized A549 cells to IR damage via inducing autophagic cell death.

SMILES | effect of inhibitor on cell death induced by berberine combined with IR (A549, 5.0 μM berberine combined with 6 Gy IR, p<0.001) | effect of inhibitor on cell viability of cells co-treated with berberine and IR (A549, berberine and IR co-treatment, p=0.15)
Cn1cnc(N)c2ncnc1-2 [3-MA, 3-methyladenine] | blocked | –
COC(=O)C[C@H](NC(=O)[C@H](C)NC(=O)[C@@H](NC(=O)OCc1ccccc1)C(C)C)C(=O)CF [z-VAD-fmk] (Cbz-Val-Ala-Asp(OMe)-CH2F) | – | did not significantly affect
